{
  "source": "patent US20230020507A1",
  "about": "“COMPOUND AND USE THEREOF IN TREATING AUTOIMMUNE DISEASES” (PARENCHYMA BIOTECH INC., priority 2019, published 2023)",
  "key": {"[1]": {"system": "Foxp3+ regulatory T cells", "experiment": "In vitro regulatory T cell (Foxp3+ Treg) production from human peripheral blood CD4 T cells", "type": "cell-based", "details": "anti-CD3/anti-CD28, TGFβ-1, IL-2, 2.5 μM, 7 days", "description": "Human peripheral blood (AllCells) and phosphate buffered saline (PBS) were mixed in a ratio of 1:1 to prepare a mixture, followed by allowing the mixture to slowly rise so as not to be mixed into the upper layer of Histopaque (Sigma). After centrifugation at 350 g for 20 minutes, only the monocyte layer in the middle layer was collected and washed with HBSS (Hanks' Balanced Salt Solution, Gibco®). After washing with MACS buffer (Miltenyi Biotec) once more to obtain T-cells, positive selection (autoMACS seperator, Miltenyi Biotec) was performed with CD4 Microbeads (Miltenyi Biotec). The T-cells collected by the above method were prepared by resuspending the cells in RPMI-fetal bovine serum (FBS) 10%+2-ME (mercaptoethanol) medium at 5×10^5/ml. For T-cell activation, 10 μg/ml anti-CD3 (eBioscience™) was dispensed by 150 μl into a 48-well plate, reacted in a cell incubator (37° C., 5% CO2 incubator) for 3 hours, and washed with phosphate buffered saline to prepare the plate. 250 μl of resuspended T-cells was dispensed onto the prepared plate, and each well was treated with 2 μg/ml of anti-CD28 (eBioscience™), 5 ng/ml of TGFβ-1 (R&D systems), and 50 U/ml of IL-2 (Miltenyi Biotec). Each 5 μl of compounds at a concentration of 2.5 μM diluted in RPMI+2ME medium was used for treatment, followed by culturing the same in a cell incubator (37° C., 5% CO2 incubator) for 7 days. As a control, 5 μl of 0.05% dimethylsulfoxide (DMSO)/RPMI medium was used for treatment. After 7 days, in order to confirm effects of producing regulatory T cells, the cultured cells were recovered to determine the presence of Foxp3 protein.\nThe recovered cells were placed in a 5 ml FACS tube (BD Falcon) and washed with 1 ml of phosphate buffered saline. The cells were resuspended in 0.1 ml of FACS buffer (0.1% NaN3, 1% FBS) and treated with 1 μg of human immunoglobulin G (Human IgG, Sigma) to prevent non-specific binding of the antibody. After reacting at 4° C. for 15 minutes, the cells were washed with FACS buffer. Then, 1 ml of Fixation/Permeabilization solution (eBioscience™) was added to the FACS tube containing each sample, followed by reaction at 4° C. for 1 hour. Thereafter, the product was washed twice with a Permeabilization buffer (eBioscience™). Then, 0.25 μg of Foxp3 monoclonal antibody (eBioscience™) was used for treatment, followed by staining the sample for 4 to 30 minutes. The cells were washed twice with the permeabilization buffer, suspended in 0.3 ml of FACS buffer, and measured by flow cytometry."}, "[2]": {"system": "C57BL/6 mice with DSS-induced inflammatory bowel disease", "experiment": "DSS-induced inflammatory bowel disease model, severity index and colon weight:length ratio", "type": "in vivo, mouse", "details": "20 mg/kg oral daily, compared to solvent control", "description": "The 1.5% DSS solution was changed at an interval of 2 days. Sterile distilled water was provided for drinking from the 8th day of the experiment. Body weight and severity index were measured at an interval of 2 days from the 0th day of the experiment in order to confirm the onset of inflammatory bowel disease.\n20 mg/kg of the compound per mouse was completely dissolved in DMSO corresponding to 10% (v/v) of the administered dose, and then diluted in a cremophor EL-phosphate buffered saline mixture in order to produce the final DMSO:Cremophor EL:phosphate buffered saline (1:1:8, v/v/v), followed by oral administration of 200 μl daily for a total of 10 times from the 2nd to 11th days of the experiment. An inflammatory bowel disease severity index was visually observed and recorded at an interval of 2 days according to a severity index system classified into 0 to 10 levels.\nInflammatory bowel disease symptoms were evaluated by summing the scores of three items according to the following items (Table 3)."}, "[3]": {"system": "C57BL/6 mice with DSS-induced inflammatory bowel disease", "experiment": "Mucosal healing (intestinal epithelial barrier integrity) with FITC-dextran in DSS mice", "type": "in vivo, mouse", "set-up": "dose or concentration left out as unconfirmed", "details": "oral daily 2nd to 9th day, 10th day, 4 hours after FITC-dextran, compared to solvent control", "from_the_text": "The 1.5% DSS solution was changed at an interval of 2 days. Sterile distilled water was provided for drinking from the 8th day of the experiment."}, "[4]": {"system": "C57BL/6 mice with autoimmune encephalomyelitis (EAE)", "experiment": "Experimental autoimmune encephalomyelitis (EAE) model of multiple sclerosis, severity index", "type": "in vivo, mouse", "details": "20 mg/kg intraperitoneally daily 12th to 17th day", "description": "On day 0, myelin oligodendrocyte glycoproteins 35-55 (MOG 35-55, Peptron) (200 μg), heat-killed Mycobacterium tuberculosis (Difco, Cat No. 231141) (500 μg), and adjuvant (Complete Freund's adjuvant, Sigma Aldrich, Cat No. F5506) were mixed together and then submerged for 7 minutes. After subcutaneous injection of 100 μl of the submerged peptide into both flanks of each of C57BL/6 mice (7 weeks old, female, 17±2 g), 100 μl of pertussis toxin (Sigma Aldrich. Cat No. P2980) (200 ng) was administered intravenously to the tail.\nOn the 2nd day of the experiment, the same amount of pertussis toxin was administered intravenously. The mice were checked for immersion leaking from the injected site, and visually observed from the 7th day of the experiment in order to confirm the onset of multiple sclerosis.\nThe multiple sclerosis index was visually observed and recorded at an interval of 2 days from the 7th day of the experiment in the severity index system classified into 0-5 stages, and autoimmune encephalomyelitis symptoms were indexed according to the following items (see Table 4)."}, "[5]": {"system": "C57BL/6 mice with graft-versus-host disease", "experiment": "Acute graft-versus-host disease model (allogeneic bone marrow transplantation), severity index", "type": "in vivo, mouse", "details": "20 mg/kg intraperitoneally daily 4 to 9 days after transplantation; 14th day after transplantation; total of 10 points; solvent control 6.20±1.20", "procedure": "The spleen of Balb/c IFN-γ knockout mouse (8 to 12 weeks old, female, 18±3 g) was excised, pulverized by adding RPMI medium, and then passed through a 40 μm cell strainer (BD Falcon), thereby obtaining a single cell suspension. The single cell suspension was centrifuged (1200 rpm, 5 minutes), and after discarding the supernatant, 1 ml of ACK (ammonium chloride/potassium bicarbonate) lysis buffer (0.15 M NH4Cl, 1 mM KHCO3, 0.1 mM Na2EDTA) was added, followed by stirring for 1 minute and then washing the same with RPMI medium.\nThen, CD90.2^+ T cells were obtained from the cell suspension using Auto MACS pro (Miltenyi Biotec) (positive selection). To obtain bone marrow cells to be transplanted together with the obtained CD90.2^+ T cells, both femurs and tibias of wild-type Balb/c mice (8-12 weeks old, female, 18±3 g) were aseptically acquired. […]\nNormal C57BL/6 mice (9 to 11 weeks old, female, 19±3 g) were irradiated with 850 cGy of radiation divided at an interval of 3 hours by using a radiation irradiator. […] The graft-versus-host disease severity index was evaluated at an interval of 2 days by visual observation in a severity index system that was classified into a total of 10 points with 0 to 2 points for each item including reduction of body weight, hair condition, posture, activity and skin change."}, "[6]": {"system": "IL-6, IL-17A and IL-10 expression in lung tissue", "experiment": "mRNA expression of IL-6, IL-17A and IL-10 in lung tissue of GVHD mice (real-time PCR)", "type": "in vivo, mouse", "details": "20 mg/kg i.p., 15th day, compared to solvent control", "from_the_text": "On the 15th day of the experiment, the lungs of the mice were excised to prepare an mRNA sample. In order to extract mRNA, the […] was ground with a homogenizer to obtain a homogeneous suspension. […] Then, cDNA was synthesized from the isolated RNA by reverse transcription, and the expression of inflammatory cytokines was confirmed through real-time polymerase chain reaction (PCR) using iQ SYBR-Green Supermix (Bio-rad) in the CFX96 (Bio-rad) detection system. Relative values of the enzyme expression levels were compared by the ΔΔct method using GAPDH as a control enzyme. Herein, one (1) fold was set using the normal mouse […] as a control.\nThe real-time polymerase chain reaction was implemented under the conditions of cycles at an annealing temperature of 58° C., and the following primer sequences were used."}, "[7]": {"details": "scale 0-5, solvent control 3.33±0.17"}},
  "data": [
    {"smiles": "O=C(Cc1c[nH]c2ccc(Cl)cc12)Nc1ccc(Cl)c(F)n1", "note": "[Compound 26, 2-(5-chloro-1H-indol-3-yl)-N-(5-chloro-6-fluoropyridin-2-yl)acetamide]", "values": [
      {"measurement": "generation of Foxp3+ regulatory T cells", "setting": "[1]", "value": "promoted"},
      {"measurement": "inflammatory bowel disease severity index", "setting": "[2]; 2nd to 11th day, 10th day of the experiment", "value": "statistically significant therapeutic effects"},
      {"measurement": "colon weight:length ratio (intestinal inflammation)", "setting": "[2]; 15th day of the experiment", "value": "significantly suppressed"},
      {"measurement": "Serum FITC-dextran", "setting": "[3]", "value": "significantly reduced"},
      {"measurement": "treatment effects on EAE severity index compared to solvent control from the 16th day, maintained after administration was stopped", "setting": "[4]", "value": "statistically significant treatment effects"},
      {"measurement": "severity index (EAE), 18th day, acute reaction period", "setting": "[4]; [7]", "value": "1.33±0.56"},
      {"measurement": "severity index (EAE), 36th day, chronic reaction period", "setting": "[4]; [7]", "value": "1.33±0.22"},
      {"measurement": "graft-versus-host disease severity index", "setting": "[5]", "value": "2.80±0.80"},
      {"measurement": "expression level of IL-6 in lung tissue", "setting": "[6]", "value": "significantly reduced"},
      {"measurement": "expression level of IL-10 in lung tissue", "setting": "[6]", "value": "significantly increased"},
      {"measurement": "expression level of IL-17A in lung tissue", "setting": "[6]", "value": "significantly reduced"}
    ]}
  ]
}
